Test results published in BindingDB's records for doi:10.1016/j.bioorg.2015.11.002 (Government College University, 2016).

Assays:
Cholinesterase = Cholinesterase (Homo sapiens, UniProt P06276); assay: Butyrylcholinesterase Assay; conditions: pH 7.7
Experimental: The butyrylcholinesterase (BChE) inhibition activity was determined according to the Ellman's method with minor modifications. Total volume of the reaction mixture was 100 µL containing 60 µL, Na2HPO4 buffer, 50 mM and pH 7.7. Ten µL test compound 0.5 mM well-1, followed by the addition of 10 µL (0.5 unit well-1)BChE. […] The reaction was initiated by the addition of 10 µL of 0.5 mM well-1 substrate (butyrylthiocholine bromide) followed by the addition of 10 µL DTNB, 0.5 mM well-1. […] Synergy HT (BioTek, USA) 96-well plate reader was used in all experiments. All experiments were carried out with their respective controls in triplicate.

Acetylcholinesterase = Acetylcholinesterase (Homo sapiens, UniProt P22303); assay: Acetylcholinesterase Assay; conditions: pH 7.7
Experimental: The AChE inhibition activity was determined according to the Ellman's method with slight modifications. Total volume of the reaction mixture was 100 µL. It contained 60 µL Na2HPO4 buffer with concentration of 50 mM and pH 7.7. Ten µL test compound (0.5 mM well-1) was added, followed by the addition of 10 µL (0.005 unit well-1) enzyme. The contents were mixed and preread at 405 nm. Then contents were pre-incubated for 10 min at 37 °C. The reaction was initiated by the addition of 10 µL of 0.5 mM well-1 substrate (acetylthiocholine iodide), followed by the addition of 10 µL DTNB (0.5 mM well-1). After 30 min of incubation at 37 °C, absorbance was measured at 405 nm. Synergy HT (BioTek, USA) 96-well plate reader was used in all experiments. All experiments were carried out with their respective controls in triplicate.

Sequence of Acetylcholinesterase (P22303 whole entry): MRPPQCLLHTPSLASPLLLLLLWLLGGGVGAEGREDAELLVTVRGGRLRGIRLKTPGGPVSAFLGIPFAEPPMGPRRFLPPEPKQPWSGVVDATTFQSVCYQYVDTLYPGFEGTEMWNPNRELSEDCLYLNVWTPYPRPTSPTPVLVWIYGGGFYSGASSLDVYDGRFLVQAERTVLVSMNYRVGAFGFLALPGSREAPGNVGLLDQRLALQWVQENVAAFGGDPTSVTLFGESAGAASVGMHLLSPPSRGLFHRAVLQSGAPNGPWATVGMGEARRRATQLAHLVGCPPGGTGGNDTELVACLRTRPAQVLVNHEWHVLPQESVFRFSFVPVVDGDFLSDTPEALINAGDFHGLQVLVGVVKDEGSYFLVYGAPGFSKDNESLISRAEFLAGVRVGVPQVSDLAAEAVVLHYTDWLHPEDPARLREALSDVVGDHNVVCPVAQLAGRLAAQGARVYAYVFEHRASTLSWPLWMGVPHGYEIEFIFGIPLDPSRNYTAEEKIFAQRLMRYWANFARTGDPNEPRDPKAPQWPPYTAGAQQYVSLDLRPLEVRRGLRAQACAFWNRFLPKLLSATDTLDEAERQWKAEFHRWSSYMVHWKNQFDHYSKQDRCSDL
Sequence of Cholinesterase (P06276 whole entry): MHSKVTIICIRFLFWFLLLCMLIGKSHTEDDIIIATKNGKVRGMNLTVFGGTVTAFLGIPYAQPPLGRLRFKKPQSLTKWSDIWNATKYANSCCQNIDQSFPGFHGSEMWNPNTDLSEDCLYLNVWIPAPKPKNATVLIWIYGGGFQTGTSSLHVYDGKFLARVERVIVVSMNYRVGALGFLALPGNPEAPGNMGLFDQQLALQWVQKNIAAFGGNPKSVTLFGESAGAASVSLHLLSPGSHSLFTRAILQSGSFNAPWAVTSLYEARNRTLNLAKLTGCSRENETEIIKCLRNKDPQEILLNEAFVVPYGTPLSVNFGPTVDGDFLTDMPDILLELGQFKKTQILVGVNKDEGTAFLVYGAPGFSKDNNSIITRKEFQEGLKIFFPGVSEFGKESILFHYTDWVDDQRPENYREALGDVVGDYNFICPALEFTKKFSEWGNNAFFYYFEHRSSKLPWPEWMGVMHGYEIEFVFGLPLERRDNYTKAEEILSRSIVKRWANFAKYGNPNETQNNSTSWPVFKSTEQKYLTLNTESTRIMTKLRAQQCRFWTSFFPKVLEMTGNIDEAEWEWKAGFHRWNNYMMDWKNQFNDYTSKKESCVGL

SMILES | IC50 (Cholinesterase) | IC50 (Acetylcholinesterase)
CCCCN(c1ccc(-c2ccc(N(CCCC)S(=O)(=O)c3ccccc3)c(C)c2)cc1C)S(=O)(=O)c1ccccc1 [N,N'-(3,3'-dimethylbiphenyl-4,4'-diyl)bis(N-butylbenzenesulfonamide) (3k)] | 20.3 µM | 3.72 µM
CCCCCN(c1ccc(-c2ccc(N(CCCCC)S(=O)(=O)c3ccccc3)cc2)cc1)S(=O)(=O)c1ccccc1 [N,N'-(biphenyl-4,4'-diyl)bis(N-pentylbenzenesulfonamide) (3d)] | – | 79.6 µM
CCCCCN(c1ccc(-c2ccc(N(CCCCC)S(=O)(=O)c3ccccc3)c(C)c2)cc1C)S(=O)(=O)c1ccccc1 [N,N'-(3,3'-dimethylbiphenyl-4,4'-diyl)bis(N-pentylbenzenesulfonamide) (3l)] | – | 51.2 µM
CCCCCCCCCCCCCCCCN(c1ccc(-c2ccc(N(CCCCCCCCCCCCCCCC)S(=O)(=O)c3ccccc3)c(C)c2)cc1C)S(=O)(=O)c1ccccc1 [N,N'-(3,3'-dimethylbiphenyl-4,4'-diyl)bis(N-hexadecylbenzenesulfonamide) (3o)] | 24.7 µM | 2.45 µM
CCCCCCCN(c1ccc(-c2ccc(N(CCCCCCC)S(=O)(=O)c3ccccc3)cc2)cc1)S(=O)(=O)c1ccccc1 [N,N'-(biphenyl-4,4'-diyl)bis(N-heptylbenzenesulfonamide) (3f)] | – | 58.6 µM
CCCCCCCN(c1ccc(-c2ccc(N(CCCCCCC)S(=O)(=O)c3ccccc3)c(C)c2)cc1C)S(=O)(=O)c1ccccc1 [N,N'-(3,3'-dimethylbiphenyl-4,4'-diyl)bis(N-heptylbenzenesulfonamide) (3n)] | 48.7 µM | 43.2 µM
Cc1cc(-c2ccc(NS(=O)(=O)c3ccccc3)c(C)c2)ccc1NS(=O)(=O)c1ccccc1 [N,N'-(3,3'-dimethylbiphenyl-4,4'-diyl)dibenzenesulfonamide (2b)] | – | 123 µM
CC(=O)N(c1ccc(-c2ccc(N(C(C)=O)S(=O)(=O)c3ccccc3)c(C)c2)cc1C)S(=O)(=O)c1ccccc1 [N,N'-(3,3'-dimethylbiphenyl-4,4'-diyl)bis(N-(phenylsulfonyl)acetamide) (3i)] | – | 96.3 µM
Cc1cc(-c2ccc(N(C(C)C)S(=O)(=O)c3ccccc3)c(C)c2)ccc1N(C(C)C)S(=O)(=O)c1ccccc1 [N,N'-(3,3'-dimethylbiphenyl-4,4'-diyl)bis(N-isopropylbenzenesulfonamide) (3j)] | – | 101 µM
CC(=O)N(c1ccc(-c2ccc(N(C(C)=O)S(=O)(=O)c3ccccc3)cc2)cc1)S(=O)(=O)c1ccccc1 [N,N'-(biphenyl-4,4'-diyl)bis(N-(phenylsulfonyl)acetamide) (3a)] | 156 µM | 103 µM
CCCCCCN(c1ccc(-c2ccc(N(CCCCCC)S(=O)(=O)c3ccccc3)cc2)cc1)S(=O)(=O)c1ccccc1 [N,N'-(biphenyl-4,4'-diyl)bis(N-hexylbenzenesulfonamide) (3e)] | – | 78.6 µM
O=S(=O)(c1ccccc1)N(Cc1ccccc1)c1ccc(-c2ccc(N(Cc3ccccc3)S(=O)(=O)c3ccccc3)cc2)cc1 [N,N'-(biphenyl-4,4'-diyl)bis(N-benzylbenzenesulfonamide) (3h)] | 35.8 µM | 61.6 µM
CCCCN(c1ccc(-c2ccc(N(CCCC)S(=O)(=O)c3ccccc3)cc2)cc1)S(=O)(=O)c1ccccc1 [N,N'-(biphenyl-4,4'-diyl)bis(N-butylbenzenesulfonamide) (3c)] | 125 µM | 8.41 µM
CC(C)N(c1ccc(-c2ccc(N(C(C)C)S(=O)(=O)c3ccccc3)cc2)cc1)S(=O)(=O)c1ccccc1 [N,N'-(biphenyl-4,4'-diyl)bis(N-isopropylbenzenesulfonamide) (3b)] | – | 73.2 µM
CCCCCCN(c1ccc(-c2ccc(N(CCCCCC)S(=O)(=O)c3ccccc3)c(C)c2)cc1C)S(=O)(=O)c1ccccc1 [N,N'-(3,3'-dimethylbiphenyl-4,4'-diyl)bis(N-hexylbenzenesulfonamide) (3m)] | – | 49.6 µM
CCCCCCCCCCCCCCCCN(c1ccc(-c2ccc(N(CCCCCCCCCCCCCCCC)S(=O)(=O)c3ccccc3)cc2)cc1)S(=O)(=O)c1ccccc1 [N,N’-(biphenyl-4,4’-diyl)bis(N-hexadecylbenzenesulfonamide) (3g)] | 7.74 µM | 4.63 µM
Cc1cc(-c2ccc(N(Cc3ccccc3)S(=O)(=O)c3ccccc3)c(C)c2)ccc1N(Cc1ccccc1)S(=O)(=O)c1ccccc1 [N,N'-(3,3'-dimethylbiphenyl-4,4'-diyl)bis(N-benzylbenzenesulfonamide) (3p)] | 31.3 µM | 2.27 µM
O=S(=O)(Nc1ccc(-c2ccc(NS(=O)(=O)c3ccccc3)cc2)cc1)c1ccccc1 [N,N'-(biphenyl-4,4'-diyl)dibenzenesulfonamide (2a)] | 203 µM | 42.3 µM
